Test results published in patent publication US20110318412A1, “LOW DOSE DOXEPIN FORMULATIONS, INCLUDING BUCCAL, SUBLINGUAL AND FASTMELT FORMULATIONS, AND USES OF THE SAME TO TREAT INSOMNIA” (Somaxon Pharmaceuticals, Inc., priority 2006, published 2011).
Structures can show the parent of a compound that is named as a salt.

Assays:
[1] = Doxepin plasma concentration after a 3 mg capsule in humans; type: in vivo, human
Protocol: An estimate of the doxepin plasma concentrations associated with the initiation of sleep was obtained by combining data from multiple studies.
In a separate study, in humans averaging about 70 kg, receiving a 3 mg capsule comprising doxepin hydrochloride, lactose monohydrate fast-flow, sodium lauryl sulfate and magnesium stearate, the average plasma concentration at 60 minutes was approximately 0.1 ng/mL.
Without being limited, it is believed that the doxepin plasma concentration achieved approximately 1 hour after a 3 mg dose is sufficient for sleep initiation. The conclusion is that doxepin plasma concentrations of 0.1 ng/mL or greater were associated with initiation of sleep.

[2] = system: human subjects; experiment: Sleep onset after a 3 mg doxepin hydrochloride capsule in human subjects; type: in vivo; details: human subjects averaging about 70 kg
[3] = Wu-Benet, 2005; cited from earlier work
[4] = Measured physicochemical parameters (logP, pKa) used for the simulation
[5] = Measured bioavailability used for the simulation; details: in vivo

concentration at 60 min ([1]; human, plasma, oral, humans averaging about 70 kg, 3 mg capsule, separate study)	doxepin plasma concentration associated with initiation of sleep ([1]; estimate from combining data from multiple studies)	logP [4]	pKa [4]	bioavailability [5]	SMILES	sleep onset compared with a placebo dose ([2]; 3 mg capsule)	time of sleep onset after dosing ([2]; 3 mg capsule (doxepin hydrochloride, lactose monohydrate fast-flow, sodium lauryl sulfate, magnesium stearate))	Biopharmaceutic Classification System class [3]	solubility (Biopharmaceutic Classification System) [3]
~0.1 ng/mL					CN(C)CCC=C1c2ccccc2COc2ccccc21 (mixture of isomers) [doxepin hydrochloride]	significantly earlier than with a placebo dose	about 60 minutes	Class One	high solubility
	≥ 0.1 ng/mL	4.13	8.96	29%	CN(C)CCC=C1c2ccccc2COc2ccccc21 (mixture of isomers) [doxepin]				
